These results are taken from patent publication US20230346765A1, “METHODS OF TREATING XANTHINE OXIDASE-RELATED DISEASES WITH NIFLUMIC ACID AND DERIVATIVES THEREOF” (Baylor College of Medicine, priority 2020, published 2023).

“Also recorded” adds a separate entry of the source.

For data set [1], the target named is T1, Xanthine oxidase from bovine milk (Bos taurus, UniProt P80457).
T1 construct: Xanthine oxidase from bovine milk; purchased Sigma Chemical Co. (St. Louis, MO); host or cells: bovine milk
T1 sequence (P80457 whole entry): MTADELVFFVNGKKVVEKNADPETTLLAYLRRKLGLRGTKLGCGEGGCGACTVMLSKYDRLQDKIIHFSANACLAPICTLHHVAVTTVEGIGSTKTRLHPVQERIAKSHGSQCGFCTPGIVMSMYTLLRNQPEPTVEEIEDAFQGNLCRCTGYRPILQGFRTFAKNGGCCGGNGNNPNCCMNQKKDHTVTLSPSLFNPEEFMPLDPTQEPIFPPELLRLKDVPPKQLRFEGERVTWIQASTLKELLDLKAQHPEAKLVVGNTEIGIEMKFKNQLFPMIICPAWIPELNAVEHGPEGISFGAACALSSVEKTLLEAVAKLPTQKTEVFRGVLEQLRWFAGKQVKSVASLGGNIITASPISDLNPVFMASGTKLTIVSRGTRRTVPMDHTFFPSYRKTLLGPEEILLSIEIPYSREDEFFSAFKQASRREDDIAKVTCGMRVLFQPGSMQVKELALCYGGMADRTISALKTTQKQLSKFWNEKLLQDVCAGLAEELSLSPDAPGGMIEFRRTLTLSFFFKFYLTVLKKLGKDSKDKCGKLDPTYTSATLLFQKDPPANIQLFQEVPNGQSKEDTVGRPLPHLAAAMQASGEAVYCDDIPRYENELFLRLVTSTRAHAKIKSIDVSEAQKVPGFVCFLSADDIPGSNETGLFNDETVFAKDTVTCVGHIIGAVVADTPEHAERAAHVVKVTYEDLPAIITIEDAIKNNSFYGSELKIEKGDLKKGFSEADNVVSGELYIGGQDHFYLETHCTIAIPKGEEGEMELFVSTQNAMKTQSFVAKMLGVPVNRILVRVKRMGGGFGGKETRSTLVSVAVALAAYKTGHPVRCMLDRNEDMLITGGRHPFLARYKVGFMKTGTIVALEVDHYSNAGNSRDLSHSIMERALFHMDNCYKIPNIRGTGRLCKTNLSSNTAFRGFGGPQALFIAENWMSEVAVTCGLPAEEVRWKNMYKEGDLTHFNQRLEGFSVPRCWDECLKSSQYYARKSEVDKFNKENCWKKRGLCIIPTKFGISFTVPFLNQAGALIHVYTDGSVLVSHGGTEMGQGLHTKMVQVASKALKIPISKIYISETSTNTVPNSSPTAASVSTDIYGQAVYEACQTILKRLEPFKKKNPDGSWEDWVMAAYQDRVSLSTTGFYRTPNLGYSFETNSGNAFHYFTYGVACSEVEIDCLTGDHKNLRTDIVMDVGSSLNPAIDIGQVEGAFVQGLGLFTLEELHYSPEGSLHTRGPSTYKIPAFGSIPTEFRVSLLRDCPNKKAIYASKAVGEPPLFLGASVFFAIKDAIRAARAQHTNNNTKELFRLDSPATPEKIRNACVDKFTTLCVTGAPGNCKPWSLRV
Description: XO inhibition assay, cell-free, spectrophotometric monitoring of uric acid formation at 295 nm. The format is biochemical. The conditions noted are these: for inhibition of XO compared among 25 compounds and with allopurinol: each compound at 20 μM; for type of inhibition / Ki: Lineweaver-Burk plot; for Ki: read-out: inhibitor constant (Ki); for Vmax of XO: in the presence of different concentrations of the inhibitor; for initial rate of uric acid formation with longer pre-incubation times with XO: pre-incubated with XO for varying times, then xanthine added. From the text: Xanthine oxidase from bovine milk, xanthine, allopurinol, niflumic acid (NFA), ethyl niflumate, 2-(3-chloro-5-(trifluoromethyl)-2-pyridylthio)pyridine-3-carboxylic acid, 2-[3-(trifluoromethyl)phenoxy]nicotinic acid, clonixin, flunixin, flufenamic acid, indomethacin, naproxen, diclofenac, aspirin, ibuprofen, talniflumate, 6-phenylamino-nicotinic acid, 2-phenylamino-nicotinic acid, N-phenylanthranilic acid, mefenamic acid, tolfenamic acid, meclofenamic acid, floctafenic acid, and dimethyl sulfoxide (DMSO) were obtained from Sigma Chemical Co. (St. Louis, MO). Morniflumate was purchased from Toronto Research Chemicals, Inc. (North York, Canada).
The uric acid absorbance at 295 nm was followed and the intensity data were collected every 30 seconds for 10 minutes. The initial rate of uric acid formation was generated for the reaction and converted to XO activity as 100% without any inhibitor (negative control). The inhibitory effect of NFA on XO activity was calculated as compared with the negative control (DMSO).
The formation of uric acid during the oxidation of xanthine by XO in the absence of NFA was recorded (see FIG. 2A). Uric acid formation was monitored as the absorbance at 295 nm over a period of 0-10 minutes during the oxidation of xanthine. The corresponding data were recorded for the oxidation of xanthine by XO in the presence of 10 μM NFA over a period of 0-10 minutes (see FIG. 2B).
Enzyme kinetics analysis of NFA—The inhibition kinetics of NFA on XO was determined by using the Lineweaver-Burk plot (see FIG. 3A). […] The maximum velocity (Vmax) and Michaelis-Menten constant of XO were determined in the presence of different concentrations of NFA (see FIG. 3B).
Dose-dependent effects—The dose-dependent effects on XO inhibition by NFA, NFA impurity E (labeled as “Impurity E”), flunixin, clonixin, and flufenamic acid were studied (see FIG. 5). Varying concentrations (0-40 μM) of each compound were pre-incubated with 20 nM of XO. Allopurinol was used as a positive control and DMSO was used as a negative control.
The inhibition kinetics of NFA impurity E on XO was determined by using the Lineweaver-Burk plot (see FIG. 7A). […] The maximum velocity (Vmax) and Michaelis-Menten constant of XO was determined in the presence of different concentrations of NFA […] (see FIG. 7B).
XO (20 nM) was pre-incubated with NFA, allopurinol or a combination of NFA and allopurinol for 1 minute in a phosphate buffer ([…] pH 7.2), followed by the addition of […] xanthine to start the reaction. XO activity was analyzed by measuring the production of uric acid.

The test system of data set [2] is allantoxanamide-treated mice. The data set can be described thus: Serum uric acid in acute hyperuricemia mouse model, allantoxanamide-treated (Example 4). The format is in vivo, C57BL/6 mice. To be noted: 50 mg/kg oral gavage once. As for the experimental part:
Adult C57BL/6 mice (15-25 g, 6-8 weeks old) were injected intraperitoneally (i.p.) with allantoxanamide at 100 mg/kg in 0.5% sodium carboxymethyl cellulose (CMC-Na) in a volume of 0.1 ml/10 g mouse body weight, to increase the serum uric acid level. Then the mice received a test compound at a concentration of 50 mg/kg in 1.0% polyethylene glycol 400 (PEG-400 in a volume of 0.1 ml/10 g mouse body weight), via oral gavage. Positive control mice received allopurinol at the same concentration as the test compound after i.p. injection of allantoxanamide. The negative control mice received PEG400 only after i.p. injection of allantoxanamide. Blood samples were collected through facial vein at 3 hours and 23 hours after the oral gavage (one time treatment). The blood was allowed to clot for 1 hour at room temperature and then centrifuged at 2350×g for 4 minutes to obtain serum. The serum was kept on ice and assayed immediately. Serum uric acid was determined using the phosphotungstate method, as known to those of skill in the art.
Allopurinol was used as a positive control. Allantoxanamide is a potent uricase inhibitor. […] Animal numbers used in this experiments [Negative control (baseline)=11; allantoxanamide=10, allopurinol (positive control)=4; niflumic acid=6; NFA-impurity E=6; talniflumate=6 and ethylniflutnate=6].

For data set [3], the system named is uricase −/− mice. Description: Serum uric acid in chronic hyperuricemia model, drug in drinking water. Format: in vivo. As for the experimental part:
Serum uric acid (SUA) levels in uricase −/− mice were used to probe the effects of treatment with drinking water containing allopurinol, DHNB, and niflumic acid (NFA). Under the maintenance of allopurinol, adult uricase−/− mice show relatively low SUA (2-4 mg/dL). […] For the current experiments, the allopurinol water was stopped and normal water was supplied to uricase−/− mice for one week; and then uricase−/− mice were treated with DHNB (150 mg/L) or NFA (150 mg/L) in drinking water. Additionally, uricase−/− mice were given allopurinol (150 mg/L) as a positive control, while normal water was given for a negative control. All drug/waters were refreshed every week. Serum uric acid (SUA) levels of treated and control mice were determined 1-2 weeks, 4-6 weeks or 8-10 weeks after the treatment (see FIG. 10). Mouse blood (100˜200 μL) was taken via facial vein at the scheduled time point. The blood was allowed to clot for 1 hour at room temperature and then centrifuged at 2350 g for 4 minutes to obtain serum. The serum was kept on ice and assayed immediately by the tungsten phosphate method, as known to those of skill in the art.

For data set [4], the system named is uricase −/− mice. The data set can be described thus: Serum uric acid in chronic hyperuricemia model, drug in solid chow diet. The conditions noted are these: for SUA: 250 mg/Kg food, 6-8 weeks; for SUA levels versus regular chow control: 250 mg/kg food, 6 to 8 weeks, p<0.001. The format is in vivo. As for the experimental part: An analogous study was performed to investigate the effects on SUA in uricase −/− mice treated with solid chow diet formulated with NFA, DHNB, and allopurinol. NFA, DHNB or allopurinol was formulated into solid chow diet (250 mg/kg food, LabDiet® 5V5R, ½″ pellet; Irradiated) from the company (Test Diet, St. Louis, MO and Lab Supply, Inc). Allopurinol water was stopped for uricase−/− mice, while normal water was supplied during experiments. Uricase−/− mice (1-2 months age, male and female), were given special solid chow die including NFA, DHNB or allopurinol (250 mg/kg food). In separate mice, special solid chow diet containing allopurinol (250 mg/kg food) was given for a positive control and regular solid chow diet was given for a negative control. Blood samples were obtained and processed at 6 or 8 weeks after the treatment (see FIG. 11). Serum uric acid was determined using the tungsten phosphate method.

Data set [5] relates to allantoxanamide-treated mice. The data set can be described thus: Hypouricemic effect in allantoxanamide induced hyperuricemic mice (Example 3). The format is in vivo, C57BL/6 mice. To be noted: 50 mg/kg oral gavage once; 1.5, 3 and 23 hours; p<0.05. As for the experimental part: A hyperuricemia mouse model was used. Allantoxanamide, a potent uricase inhibitor, was used to induce hyperuricemia in mice in this study. Briefly, adult C57BL/6 mice (15-25 g. 6-8 weeks old) were injected intraperitoneally (i.p.) with allantoxanamide at 100 mg/kg or 200 mg/kg in 0.5% sodium carboxymethyl cellulose (CMC-Na) in a volume of 0.1 ml/10 g mouse body weight, to increase the serum uric acid level. The mice then received the test compound morniflumate at a concentration of 50 mg/kg in 1.0% polyethylene glycol 400 (PEG400 in a volume of 0.1 ml/10 g mouse body weight), via oral gavage. Positive control mice received allopurinol at the same concentration as test compound after i.p. injection of allantoxanamide. The negative control mice received PEG400 only after i.p, injection of allantoxanamide. Blood samples were collected through the facial vein at 1,5 hours, 3 hours, and 23 hours after the oral gavage. The blood was allowed to clot for 1 hour at room temperature and then centrifuged at 2350×g for 4 minutes to obtain serum. The serum was kept on ice and assayed immediately. Serum uric acid was determined using the phosphotungstate method, as known to those of skill in the art.

Data set [6] in a line: Stability of NFA during pre-incubation with XO (absorbance at 287 nm). Format: physicochemical. To be noted: incubated with XO for 0 to 47 hours.
The mark [7] stands for this setting: 150 mg/L in drinking water, 1-2 weeks.
[8] abbreviates: 150 mg/L in drinking water, 4-6 weeks.
Setting [9] is: 150 mg/L in drinking water, 8-10 weeks.

Broadly, the Ki is the equilibrium dissociation constant of an inhibitor or competing ligand from its target. What is called IC50 is the midpoint of a concentration-inhibition curve.

For `Cc1c(Nc2ncccc2C(=O)O)cccc1C(F)(F)F` [flunixin], in data set [1], the “inhibition of XO compared among 25 compounds and with allopurinol” value was “decreased its XO inhibitory activity”.

As for `O=C(O)c1ccc(Nc2cccc(C(F)(F)F)c2)nc1` [NFA impurity E], the “dose-dependent XO inhibition, rank” value in data set [1] (0-40 μM pre-incubated with 20 nM XO) is given as “most potent amongst each of the compounds tested”. Moreover, in data set [1], the type of inhibition entry is on record as “mixed-type inhibition”; the Ki was 30 nM; the “inhibition of XO compared among 25 compounds and with allopurinol” value is listed as “most potent inhibitor amongst the compounds tested; also recorded: most effectively inhibit XO activity”; the “Vmax of XO” value came to 0.044 µM/s. In addition, the “initial rate of uric acid formation with longer pre-incubation times with XO” value in data set [1] was “did not change”. In addition, in data set [2] (3-hour time point), the “SUA levels versus allantoxanamide control” value was “significantly reduced SUA levels”. Further, the “SUA levels versus allantoxanamide control” value in data set [2] (23-hour time point) is listed as “significant effect”.

On to `O=Cc1cc(O)c(O)c([N+](=O)[O-])c1` [DHNB, 3,4-dihydroxy-5-nitrobenzaldehyde], for which the SUA in the data set on uricase −/− mice [3] (setting [7]) was found to be 5.37 ± 1.06 mg/dL; with uricase −/− mice [3] (setting [8]), 5.73 ± 0.76 mg/dL; with uricase −/− mice [3] (setting [9]), 5.76 ± 0.81 mg/dL; in the data set on uricase −/− mice [4], 5.91 ± 1.30 mg/dL. For the same molecule, in the data set on uricase −/− mice [4], the “SUA levels versus regular chow control” value is “significantly reduced SUA levels”.

Regarding `CCOC(=O)c1cccnc1Nc1cccc(C(F)(F)F)c1` [ethylniflumate, ethyl niflumate], the “SUA levels versus allantoxanamide control” value in data set [2] (3-hour time point) is “significantly reduced SUA levels”.

In the case of `Oc1ncnc2[nH]ncc12` [Allopurinol, allopurinol], the SUA turned out to be 3.34 ± 0.87 mg/dL in the data set with uricase −/− mice [3] (setting [7]), 3.45 ± 0.49 mg/dL with uricase −/− mice [3] (setting [8]), 4.28 ± 0.80 mg/dL in the data set with uricase −/− mice [3] (setting [9]) and 4.33 ± 1.15 mg/dL in the data set on uricase −/− mice [4]. The “SUA under maintenance of allopurinol” value with uricase −/− mice [3] (adult uricase−/− mice, maintenance allopurinol water) is 2 to 4 mg/dL. The “SUA levels versus allantoxanamide control” value in data set [5], in data set [2] (3-hour time point) and in data set [2] (23-hour time point) was “significantly reduced SUA levels” each time. Also, the “SUA levels versus regular chow control” value with uricase −/− mice [4] is recorded as “significantly reduced SUA levels”.

For `O=C(OCCN1CCOCC1)c1cccnc1Nc1cccc(C(F)(F)F)c1` [morniflumate, Morniflumate], in data set [5], the “SUA levels versus allantoxanamide control” value is “significantly reduced SUA levels”.

Take `O=C1OC(OC(=O)c2cccnc2Nc2cccc(C(F)(F)F)c2)c2ccccc21` (centres unmarked) [talniflumate]: the “SUA levels versus allantoxanamide control” value is “significantly reduced SUA levels” in data set [2] (3-hour time point) and “significant effect” in data set [2] (23-hour time point).

For the molecule `O=C(O)c1cccnc1Nc1cccc(C(F)(F)F)c1` [Niflumic acid, niflumic acid], in data set [1] (20 nM XO, read-out: IC50, inhibitory effect on XO activity), the IC50 worked out at 2750 nM. In addition, in data set [1], the type of inhibition entry was “mixed-type inhibition”, the Ki was determined as 368 nM, the “Vmax of XO” value came out at 0.04 µM/s and the “initial rate of uric acid formation with longer pre-incubation times with XO” value is “did not change”. Further, the relative enzymatic activity result in data set [1] (at 20 μM) is recorded as “approximately 20%”. Moreover, in data set [1] (at lower concentrations (≤3.3 μM)), the XO relative activity is recorded as 45%. Moreover, in data set [1] (listed as NFA), the “inhibition of XO compared among 25 compounds and with allopurinol” value is “inhibitory effect similar to that of allopurinol; also recorded: most effectively inhibit XO activity”. In addition, the “effect of pre-incubation with XO on stability” value in data set [6] is “no effect on the stability”. In the data set on uricase −/− mice [3] (setting [7]), the SUA was 5.47 ± 1.21 mg/dL. The same molecule returned an SUA in the data set with uricase −/− mice [3] (setting [8]) of 6.50 ± 0.64 mg/dL. In the data set on uricase −/− mice [3] (setting [9]), this molecule came in with an SUA of 3.89 ± 0.20 mg/dL. Also, in the data set with uricase −/− mice [3] (150 mg/L in drinking water, all three time points, p<0.001), the “SUA levels versus control mice” value is listed as “significantly reduced SUA levels”. In data set [2] (3-hour time point), the “SUA levels versus allantoxanamide control” value is “significantly reduced SUA levels”. Further, the “SUA levels versus allantoxanamide control” value in data set [2] (23-hour time point) is listed as “significant effect”. In addition, in the data set on uricase −/− mice [4], the SUA came to 5.17 ± 1.28 mg/dL and the “SUA levels versus regular chow control” value is “significantly reduced SUA levels”.
